This is an account of results in US5525595A, “3- or 4-glycosyloxybenzopyran derivative and antiallergic agent containing the derivative as active ingredient” (priority 1993, dated 1996).

The subject of assay [1] is homologous passive cutaneous anaphylaxis (PCA) reaction. As to the kind of experiment: Effect on homologous passive cutaneous anaphylaxis (PCA) reaction in rats. The format is in vivo, rats (Male wistar rats). The following applies: for inhibition in vivo at 100 mg/kg: Rattus norvegicus, 0.5 h, 100 mg/kg oral, 1 hour before antigen, rats, Table 3; for Inhibition (%) of PCA reaction, compared compounds: Comparative Test Example 1, Table 5, compared compounds of EP-A-0598117. On the procedure:
This experimental animal model is caused by immediate type allergic reaction, namely, antigen-antibody reaction. In the following, the method of this pharmacological test will be explained.
Method: Male wistar rats (9 weeks old) were intradermally administered 0.05 ml of anti-serum against trinitrophenylated ascaris (TNP-As) into two sites on the shaved dorsal skin. 48 hours later, 3-glycosyloxybenzopyran derivatives and 4-glycosyloxybenzopyran derivatives (test compounds) suspended in 0.5% sodium carboxymethylcellulose (CMCNa) were given orally at a dose of 100 mg/kg to the animals. 1 hour after administration of Test compounds, the animals were induced anaphylaxis by injection of saline (1 ml) dissolving 5 mg of Evans Blue and 1 mg of TNP-As into the tail vein of the animals. 30 minutes after induction of anaphylaxis, animals were anesthetized by ether and killed by bleeding, and were flayed dorsal skin. The leakage of dye was assessed by measuring the diameter (mean of shortest and longest diameter) of the blue spot on the inside surface of dorsal skin. As vehicle control group, only 0.5% CMCNa solution was administered orally, and as positive control group, Tranilast suspended in 0.5% CMCNa were administered orally at a dose of 100 mg/kg to the animals with the same method as the test compounds groups. Each experimental group consisted of 5 rats. [formula] In equation 1: A: leakage of dye in vehicle control group
B: leakage of dye in test compound group or in positive control group
The anti-allergic activity of the compounds of the present invention were compared with that of analogous compounds which were published in the Patent (EP-A-0598117) by PCA reaction. This pharmacological test was performed according to the method described in Test Example 1.

In assay [2] the test system is contact dermatitis induced by picryl chloride. As to the kind of experiment: Effect on contact dermatitis induced by picryl chloride in mice (delayed type hypersensitization). The class given is in vivo. The following applies: for inhibition in vivo at 100 mg/kg: ear thickness 24 hours after challenge, Table 6. The method, then:
The delayed type hypersensitization is inhibited by steroid, but can not be effected by known anti-allergic agents. In the following, the method of the pharmacological test will be explained.
Method: Mice, shaved their abdominal skin on previous day, were immunized by applying 0.1 ml of acetone containing 7 mg of picryl chloride to the skin of the abdomen. 7 days after immunization, the thickness of the ear was measured with a dial thickness gauge, then mice were challenged by painting 5 μl of 1% picryl chloride olive oil solution to each side skin of left ear. 24 hours after challenge, the thickness of the left ear was measured again and the increase (%) of thickness was calculated according to equation 2. The compounds of the present invention (test compounds) suspended in 0.5% CMCNa were forcibly administered orally at a dose of 100 mg/kg at 1 hour before and 16 hours after challenge. As vehicle control group, only 0.5% CMCNa solution were administered orally, and as positive control group, Prednisolone, steroid hormone, and Tranilast were administered orally at the doses of 10 mg/kg and 100 mg/kg, respectively.
Increase (%)=(A-B)/B×100 (Equation 2)
A: thickness of the ear at 24 hours after challenge
B: thickness of the ear before challenge
Inhibition(%)=(C-D)/C×100 (equation 3)
C: The increase (%) in vehicle control group
D: The increase (%) in test compounds group or positive control group

Assay [3] has as its system airway resistance in experimental asthma model. As to the kind of experiment: Effect on experimental asthma model in guinea pigs. The format is in vivo, guinea pigs (Male hadley). The following applies: Cavia porcellus; 100 mg/kg oral, OVA challenge, guinea pigs; Table 7. On the procedure: The asthma is typical allergic disease and we carried out this pharmacological test by well known experimental asthma model in guinea pigs in order to confirm that the compounds of the present invention suppress the asthma. In the following, the method of the pharmacological test will be explained.
Method: Male hadley guinea pigs were immunized by intraperitoneal injection of saline (1 ml) containing 5 mg of ovalbumine (OVA) three times at interval of one week. 2 weeks after final immunization, the animals were challenged by inhalation of 1% OVA-saline solution for 1 minute and then the airway resistance of the animals were measured for 30 minutes with PULMOS-1 (Medical Interface Project Station Inc.) after the inhalation. The compounds of the present invention (test compounds) suspended in 0.5% CMCNa were given orally at a dose of 100 mg/kg. As positive control group, Disodium Cromoglicate (DSCG), well known anti-allergic agent, in saline were injected at a dose of 20 mg/kg into the vein of the animals. As vehicle control group, only 0.5% CMCNa solution were given orally. The inhibition (%) of the airway resistance in vehicle control group was calculated according to equation 5 and the result was shown in Table 7. Each experimental group consisted of 5 guinea pigs. [formula] In equation 5: A: Maximum airway resistance in vehicle control group
B: Maximum airway resistance in test compounds group or positive control group

The mark [4] stands for this setting: Mus musculus, 100 mg/kg oral, read-out: Inhibition (%) against the increase of ear thickness.

As for `O=C(Oc1ccc2c(O)c(O[C@@H]3O[C@H](CO)[C@H](O)[C@H](O)[C@H]3O)c(=O)oc2c1)c1ccccc1` [compound 39], the inhibition in vivo at 100 mg/kg turned out to be 58.3% in assay [1], 54.3% in assay [2] (setting [4]) and 64.1% in assay [3].

As for `O=c1oc2cc(OCc3ccccc3)ccc2c(O[C@@H]2O[C@H](CO)[C@H](O)[C@H](O)[C@H]2O)c1O` [compound 104], the figures for the inhibition in vivo at 100 mg/kg in assay [1], in assay [2] (setting [4]) and in assay [3] were 44.2%, 46.1% and 63.3%, respectively.

On to `O=C(Oc1ccc2c(O[C@@H]3O[C@H](CO)[C@H](O)[C@H](O)[C@H]3O)c(O)c(=O)oc2c1)c1ccccc1` [compound 100], for which the inhibition in vivo at 100 mg/kg in assay [1] was 42.6%; in assay [2] (setting [4]) it was 44.9%; in assay [3], 67.8%.

For `COc1ccc2c(O)c(O[C@@H]3O[C@H](COC(C)=O)[C@@H](OC(C)=O)[C@H](OC(C)=O)[C@H]3OC(C)=O)c(=O)oc2c1` [compound 4, 7-methoxy-4-hydroxy-3-(tetra-O-acety-β-D-glucopyranosyloxy)-2H-1-benzopyran-2-one], the inhibition in vivo at 100 mg/kg in assay [1] was found to be 40.2%; in assay [2] (setting [4]) it was 46.3%; in assay [3], 48.3%.

As to `CCCCOc1ccc2c(O[C@@H]3O[C@H](CO)[C@H](O)[C@H](O)[C@H]3O)c(O)c(=O)oc2c1` [compound 93], the inhibition in vivo at 100 mg/kg in assay [1] worked out at 57.6%; in assay [2] (setting [4]), 59.9%; in assay [3] it was 60.5%.

For the compound `COc1ccc2c(O[C@@H]3O[C@H](CO)[C@H](O)[C@H](O)[C@H]3O)c(O)c(=O)oc2c1` [compound 92], the inhibition in vivo at 100 mg/kg stood at 50.2% in assay [1], 52.6% in assay [2] (setting [4]) and 57.7% in assay [3].

For the compound `CCC=CCCOc1ccc2c(O)c(O[C@@H]3O[C@H](CO)[C@@H](O)[C@H](O)[C@H]3O)c(=O)oc2c1` [compound 19], the inhibition in vivo at 100 mg/kg in assay [1] turned out to be 56.8%; in assay [2] (setting [4]), 57.4%; in assay [3] it was 73.1%.

Turning to `COc1ccc2c(O[C@@H]3O[C@H](CO)[C@@H](O)[C@H](O)[C@H]3O)c(OC(C)=O)c(=O)oc2c1` [compound 65, 7-methoxy-3-acetoxy-4-(β-D-glucopyranosyloxy)-2H-1-benzopyran-2-one], the results for the inhibition in vivo at 100 mg/kg in assay [1], in assay [2] (setting [4]) and in assay [3] were 45.6%, 46.3% and 46.9%, respectively.

For `O=c1oc2cc(OCc3ccccc3)ccc2c(O)c1O[C@@H]1O[C@H](CO)[C@H](O)[C@H](O)[C@H]1O` [compound 40], the inhibition in vivo at 100 mg/kg stood at 40.5% in assay [1], 41.3% in assay [2] (setting [4]) and 46.2% in assay [3].

In the case of `CCCCCCCCCCOc1ccc2c(O[C@@H]3O[C@H](CO)[C@H](O)[C@H](O)[C@H]3O)c(O)c(=O)oc2c1` [compound 95], the inhibition in vivo at 100 mg/kg came to 65.1% in assay [1], 65.1% in assay [2] (setting [4]) and 75.4% in assay [3].

For the compound `COc1ccc2c(O[C@H]3O[C@H](CO)[C@@H](O)[C@H](O)[C@@H]3O)c(O)c(=O)oc2c1` [compound 78], the inhibition in vivo at 100 mg/kg in assay [1] stood at 46.2%; in assay [2] (setting [4]), 43.1%; in assay [3], 50.8%.

With `CC(C)Oc1ccc2c(O)c(O[C@@H]3O[C@H](CO)[C@@H](O)[C@H](O)[C@H]3O)c(=O)oc2c1` [compound 18], the inhibition in vivo at 100 mg/kg came out at 56.6% in assay [1], 56.9% in assay [2] (setting [4]) and 70.3% in assay [3].

For `CCCCCCCCOc1ccc2c(O)c(O[C@H]3O[C@H](CO)[C@@H](O)[C@H](O)[C@@H]3O)c(=O)oc2c1` [compound 25], the inhibition in vivo at 100 mg/kg in assay [1] turned out to be 50.9%; in assay [2] (setting [4]), 57.3%; in assay [3] it was 68.6%.

As to `CCCCCCCCCCCCOc1ccc2c(O[C@H]3O[C@H](CO)[C@@H](O)[C@H](O)[C@@H]3O)c(O)c(=O)oc2c1` [compound 82], the figures for the inhibition in vivo at 100 mg/kg in assay [1], in assay [2] (setting [4]) and in assay [3] were 47.3%, 48.7% and 55.1%, respectively.

In the case of `CC(=O)Oc1ccc2c(O)c(O[C@@H]3O[C@H](CO)[C@@H](O)[C@H](O)[C@H]3O)c(=O)oc2c1` [compound 13, 7-acetoxy-4-hydroxy-3-(β-D-glucopyranosyloxy)-2H-1-benzopyran-2-one], the inhibition in vivo at 100 mg/kg worked out at 58.7% in assay [1], 50.4% in assay [2] (setting [4]) and 57.7% in assay [3].

With `CCC=CCCOc1ccc2c(O)c(O[C@@H]3O[C@H](CO)[C@H](O)[C@H](O)[C@H]3O)c(=O)oc2c1` [compound 37], the inhibition in vivo at 100 mg/kg in assay [1] came to 59.5%; in assay [2] (setting [4]), 58.3%; in assay [3], 72.4%.

For the compound `CCCCCCOc1ccc2c(O[C@H]3O[C@H](CO)[C@@H](O)[C@H](O)[C@@H]3O)c(O)c(=O)oc2c1` [compound 122], the inhibition in vivo at 100 mg/kg in assay [1] was 52.3%; in assay [2] (setting [4]), 53.2%; in assay [3], 62.1%.

For the compound `CC(C)=CCC/C(C)=C/COc1ccc2c(O[C@H]3O[C@H](CO)[C@@H](O)[C@H](O)[C@@H]3O)c(O)c(=O)oc2c1` [compound 85], the figures for the inhibition in vivo at 100 mg/kg in assay [1], in assay [2] (setting [4]) and in assay [3] were 47.6%, 47.2% and 48.5%, respectively.

For the compound `C[C@]12C=CC(=O)C=C1CC[C@@H]1[C@@H]2[C@@H](O)C[C@@]2(C)[C@H]1CC[C@]2(O)C(=O)CO` [Prednisolone, reference compound], the inhibition in vivo at 10 mg/kg in assay [2] (Mus musculus, po, 24 h, read-out: Inhibition (%) against the increase of ear thickness) was found to be 63.5%.

As for `CCCCCCCCOc1ccc2c(O)c(OC)c(=O)oc2c1` [Compared compound 2, 3-methoxy-4-hydroxy-7-octyloxy-2H-1-benzopyran-2-one, reference compound], in assay [1], the “Inhibition (%) of PCA reaction, compared compounds” value (from here on “Inhibition (%) of PCA reaction”) was determined as 32.8%.

Turning to `CCCCCCCCCCOc1ccc2c(OC)c(O)c(=O)oc2c1` [Compared compound 4, 3-hydroxy-4-methoxy-7-decyloxy-2H-1-benzopyran-2-one, reference compound], in assay [1], the “Inhibition (%) of PCA reaction” value was found to be 26.4%.

Take `COc1ccc(/C=C/C(=O)Nc2ccccc2C(=O)O)cc1OC` [Tranilast, reference compound]: the results for the inhibition in vivo at 100 mg/kg in assay [1] and in assay [2] (setting [4]) were 56.2% and 11.5%, respectively. Further, the “inhibition of delayed type hypersensitization” value in assay [2] (100 mg/kg oral, in words) is “did not inhibit delayed type hypersensitization”.

As to `COc1ccc2c(O)c(OC)c(=O)oc2c1` [Compared compound 1, 4-hydroxy-3,7-dimethoxy-2H-1-benzopyran-2-one, reference compound], in assay [1], the “Inhibition (%) of PCA reaction” value turned out to be 28.9%.

As to `COc1ccc2c(OC)c(O)c(=O)oc2c1` [Compared compound 3, 3-hydroxy-4,7-dimethoxy-2H-1-benzopyran-2-one, reference compound], the “Inhibition (%) of PCA reaction” value in assay [1] turned out to be 30.6%.
